This is an account of results in US9055743B2, “Alpha, beta-unsaturated imines” (BAYER INTELLECTUAL PROPERTY GMBH, priority 2010, dated 2015).

Molecules are shown by their SMILES.

The test system of data set [1] is Anopheles gambiae (homocygus kdr). The data set is described as follows: Anopheles test (ANPHGB surface treatment). The settings on record: 100 mg/m^2, two hours after contact, exposition 30 minutes. It is filed as in vivo. In outline:
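Adult mosquitoes held 30 min on a glazed tile treated with a dried 2 mg/ml acetone solution of compound. Mortality scored at 24 h (100% = all killed), knock-down percentage at 2 h post-contact.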

The test system of data set [2] is green peach aphid (Myzus persicae). The data set is described as follows: Myzus test (MYZUPE spray treatment). The data set is classed as in vivo. Conditions: 500 g/ha, spray, after 6 days. In outline: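 Activity read as % aphid kill 6 days after treatment (0% = none killed). Compound formulated in acetone and dimethylformamide plus alkylaryl polyglycol ether, diluted in water and sprayed onto infested Brassica pekinensis leaf discs.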

The subject of another data set is Musca domestica. The data set is described as follows: Musca domestica test (MUSCDO). The data set is classed as in vivo. Conditions: 100 ppm, after 2 days. The protocol: Musca domestica Test (MUSCDO)
(§1) Solvent: Dimethyl Sulphoxide
To produce a suitable preparation of active compound, 10 mg of active compound are mixed with 0.5 ml of dimethyl sulphoxide and the concentrate is diluted with water to the desired concentration. Vessels containing a sponge treated with the active compound preparation of the desired concentration are populated with adult Musca domestica.
After 2 days, the kill in % is determined 100% means that all flies have been killed; 0% means that none of the flies have been killed.

For the next data set, the system named is Boophilus microplus. The data set is described as follows: Boophilus microplus test (BOOPMI injection). It is filed as in vivo. Conditions: 20 μg/animal, injection into the abdomen, after 7 days. In outline:
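Ticks injected in the abdomen with compound in DMSO, then held in a climatized room. Effect scored after 7 days as % reduction in fertile egg laying, 100% meaning no fertile eggs.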

A further data set has as its system Ctenocephalides felis. The data set is described as follows: Ctenocephalides felis oral test (CTECFE). The data set is classed as in vivo. The settings on record: 100 ppm in citrated cattle blood, after two days. In outline:
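About 20 unfed adult C. felis fed through a parafilm membrane on citrated cattle blood containing compound (DMSO stock diluted to the desired concentration). Kill (%) determined after two days; 100% = all fleas dead, 0% = none dead.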

The subject of data set [3] is Boophilus microplus strain Parkhurst, SP-resistant. Description: Boophilus microplus test (DIP). The data set is classed as in vivo. Conditions: 100 ppm, after 7 days. On the procedure: Boophilus microplus Test (DIP) Test Animals: Adult Fat Females of the Boophilus microplus Strain Parkhurst—SP-Resistant) Solvent: Dimethyl Sulphoxide
10 mg of active compound are dissolved in 0.5 ml of dimethyl sulphoxide. To produce a suitable formulation, the active compound solution is diluted with water to the particular desired concentration.
This active compound preparation is pipetted into tubes. 8-10 ticks are transferred into a further tube provided with holes. The tube is dipped into the active compound preparation, with all the ticks being wetted completely. After the liquid has run off, the ticks are transferred to filter discs in plastic dishes and kept in a climatized room. After 7 days, the activity is checked for deposition of fertile eggs. Eggs whose fertility is not visible from the outside are kept in glass tubes in a climatized cupboard until the larvae have hatched. An activity of 100% means that no tick has laid fertile eggs.

In data set [4] the test system is caterpillars of the army worm (Spodoptera frugiperda). Description: Spodoptera frugiperda test (SPODFR spray treatment). The data set is classed as in vivo. Conditions: 500 g/ha, spray, after 7 days. The method in brief:
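Activity in % read 7 days after armyworm caterpillars were placed on dried, sprayed Zea mays leaf discs; 0% means none killed. Spray prepared from an acetone/DMF concentrate with emulsifier, diluted with emulsifier-containing water.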

Data set [5] deals with cat fleas (Ctenocephalides felis, fully sensitive laboratory strain). Description: Contact test against fleas in-vitro (CTECFE contact). It is filed as in vivo. The settings on record: 500 g/ha, after 48 h. The method in brief: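 Test tubes coated from acetone solutions by rotation, top concentration 500 g/ha (500 μg/dm^2) on tube surface, serial 1:5 dilutions. 10-20 CO2-anesthetized adult fleas held at room temperature for 24 and 48 h. Activity scored versus acetone control: knock-down or death of all fleas = 100%.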

For data set [6], the system named is greenhouse red spider mite (Tetranychus urticae). The data set is described as follows: Tetranychus test; OP-resistant (TETRUR spray treatment). Conditions: 500 g/ha, spray, after 6 days. The data set is classed as in vivo. In outline: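 Activity, as % of mites killed (0–100%), was assessed 6 days after spraying. The spray was compound formulated with acetone, DMF and emulsifier, then diluted in water. It was applied to Phaseolus vulgaris leaf discs carrying every life stage of an OP-resistant spider mite strain.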

The test system of data set [7] is larvae of the mustard beetle (Phaedon cochleariae). Description: Phaedon test (PHAECO spray treatment). It is filed as in vivo. The settings on record: 500 g/ha, spray, after 7 days. In outline: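 Mustard beetle larvae were placed on dried Brassica pekinensis leaf discs previously spray-treated with test compound; formulation used acetone and dimethylformamide solvents plus alkylaryl polyglycol ether emulsifier, diluted with emulsifier-containing water.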

A further data set has as its system Lucilia cuprina larvae. The data set is described as follows: Lucilia cuprina test (LUCICU). Conditions: 100 ppm, after 2 days. The data set is classed as in vivo. On the procedure:
Lucilia cuprina Test (LUCICU)
as §1
To produce a suitable preparation of active compound, 10 mg of active compound are mixed with 0.5 ml of dimethyl sulphoxide and the concentrate is diluted with water to the desired concentration. Vessels containing horsemeat treated with the active compound preparation of the desired concentration are populated with about 20 Lucilia cuprina larvae.
After 2 days, the kill in % is determined. 100% means that all larvae have been killed; 0% means that none of the larvae have been killed.

A further data set concerns Aedes aegypti. The data set is described as follows: Aedes test (AEDSAE surface treatment). The data set is classed as in vivo. The settings on record: 100 mg/m^2, two hours after contact, exposition 30 minutes. In outline: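 Adults were held 30 minutes on glazed tiles carrying a dried acetone deposit of compound (2 mg/ml solution). Readouts: percent knock-down 2 h after contact, percent mortality 24 h after contact, where 0% means no mosquitoes killed.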

The nature of data set [8]: logP determination by HPLC on reversed-phase columns (C18), LC-MS neutral. It is filed as physicochemical. The settings on record: pH 7.8, HPLC on C18, calibration with alkan-2-ones.
The subject of the next data set is Culex quinquefasciatus. The data set is described as follows: whole plant or invertebrate. It is filed as in vivo. The settings on record: 100 mg/m^2, two hours after contact, exposition 30 minutes. The protocol: Culex Test (CULXFA Surface Treatment) Solvent: Acetone
To produce a suitable preparation of active compound, the active compound is dissolved in acetone (2 mg/ml). The active compound preparation is pipetted onto a glazed tile and, after drying, adult mosquitoes of the species Culex quinquefasciatus are placed onto the treated tile. The exposition time is 30 minutes.
(§2) Two hours after contact to the treated surface, the knock-down proportion of the test animals in % is determined.
(§3) 24 hours after contact to the treated surface, the mortality in % is determined. Here, 100% means that all mosquitoes have been killed; 0% means that none of the mosquitoes has been killed.

Data set [9] concerns Anopheles funestus strain FUMOZ-R. The data set is classed as in vivo. Conditions: 100 mg/m^2, two hours after contact, exposition 30 minutes. The protocol:
Anopheles Test (ANPHFU Surface Treatment) Solvent: Acetone
To produce a suitable preparation of active compound, the active compound is dissolved in acetone (2 mg/ml). The active compound preparation is pipetted onto a glazed tile and, after drying, adult mosquitoes of the species Anopheles funestus strain FUMOZ-R (Hunt et al., Med Vet Entomol. 2005 September; 19(3):271-5) are placed onto the treated tile. The exposition time is 30 minutes.
as §2, §3

As for `Cc1ccc(N=C2C(=CSc3ccccc3)C(C)c3ccccc32)cc1` (mixture of isomers) [Example 1-5], the knock-down activity in data set [1] is given as 100%. The “activity (aphids killed)” value in data set [2] stood at 100%. Besides, the “activity (kill in %)” value in the data set on Musca domestica, in the data set with Ctenocephalides felis and in the data set on Lucilia cuprina larvae was 100% in each case. For the same compound, in the data set with Boophilus microplus, the “activity (100% = none of the ticks has laid any fertile eggs)” value was determined as 100%. Moreover, in data set [3], the “activity (100% = no tick has laid fertile eggs)” value is given as 100%. For the same compound, the “activity (caterpillars killed)” value in data set [4] came out at 100%. Further, in data set [5], the “activity against cat fleas” value is on record as 100%. Further, in [6], the “activity (spider mites killed)” value was determined as 100%. In data set [7], the “activity (beetle larvae killed)” value was 100%.
Consider `Cc1ccc(N=C2C(=CSc3ccc(F)cc3)C(C)c3cccc(F)c32)cc1` (mixture of isomers) [Example 1-27], for which the knock-down activity (in [1]; in the data set with Aedes aegypti) was 100% throughout. The “activity (aphids killed)” value in data set [2] is recorded as 100%. Besides, the “activity (kill in %)” value with Musca domestica, in the data set with Ctenocephalides felis and with Lucilia cuprina larvae was 100% in each case. For the same compound, the “activity (100% = none of the ticks has laid any fertile eggs)” value in the data set on Boophilus microplus was 100%. Besides, the “activity (100% = no tick has laid fertile eggs)” value in data set [3] is 100%. Also, the “activity (caterpillars killed)” value in data set [4] amounted to 100%. Further, the “activity against cat fleas” value in data set [5] is reported as 100%. Besides, the “activity (spider mites killed)” value in [6] was found to be 100%. In data set [7], the “activity (beetle larvae killed)” value turned out to be 100%.
`CC1C(=CSc2ccccc2)C(=Nc2ccc(Cl)cc2)c2ccccc21` (centres unmarked) [Example 1-11]: the logP result in data set [8] is “LC-MS (neutral)*: logP = 6.38, (M + H)^+ = 376”.
On to `Cc1ccc(N=C2C(=CSc3ccc(F)cc3)COc3ccccc32)cc1` [Example 1-36], for which the knock-down activity (in data set [1]; in the data set with Culex quinquefasciatus; in the data set with Aedes aegypti) was 100% each time. The “activity (aphids killed)” value in [2] was determined as 100%. Also, the “activity (100% = none of the ticks has laid any fertile eggs)” value with Boophilus microplus turned out to be 100%. Further, the “activity (kill in %)” value with Ctenocephalides felis is 90%; with Lucilia cuprina larvae it was 100%. For the same compound, the “activity (caterpillars killed)” value in data set [4] turned out to be 100%. The “activity against cat fleas” value in [5] stood at 100%. In addition, the “activity (spider mites killed)” value in data set [6] is recorded as 100%. For the same compound, the “activity (beetle larvae killed)” value in data set [7] is given as 100%.
With `Cc1ccc(N=C2CCCCCC2=CSc2ccccc2)cc1` [Example 1-38], the knock-down activity (in data set [1]; in the data set with Aedes aegypti) was 100% in each case. For the same compound, in data set [8], the logP result is listed as “LC-MS (neutral)*: logP = 6.20, (M + H)^+ = 322”. In addition, the “activity against cat fleas” value in [5] was 100%.
As to `Cc1ccc(N=C2C(=CSc3ccc(F)cc3)C3CCC2C3)cc1` (centres unmarked) [Example 1-40], the knock-down activity (in data set [1]; in data set [9]; in the data set with Aedes aegypti) was 100% each time. Also, in data set [6], the “activity (spider mites killed)” value is on record as 100%. Also, the “activity (beetle larvae killed)” value in data set [7] is given as 100%.
Regarding `Cc1ccc(N=C2C(=CSc3ccc(F)cc3)CCc3cc(C)ccc32)cc1` [Example 1-46], the knock-down activity (in data set [1]; in the data set on Culex quinquefasciatus; with Aedes aegypti) was 100% each time. The “activity (aphids killed)” value in data set [2] was determined as 100%. Besides, the “activity (caterpillars killed)” value in data set [4] came to 100%. Also, in data set [5], the “activity against cat fleas” value worked out at 100%. For the same compound, the “activity (spider mites killed)” value in [6] is 100%. Also, the “activity (beetle larvae killed)” value in [7] amounted to 100%.
Regarding `CC(=O)Nc1ccc2c(c1)CCC(=CSc1ccc(F)cc1)C2=Nc1ccc(C)cc1` [Example 1-48], the logP entry in [8] is “LC-MS (neutral)*: logP = 4.64, (M + H)^+ = 431”.
Same read-out and setting: for `Cc1ccc(N=C2C(=CSc3ccc(F)cc3)CCCC2=Cc2ccccc2)cc1` [Example 1-56] the value was “LC-MS (neutral)*: logP = 7.01, (M + H)^+ = 414”.
Turning to `Cc1ccc(N=C2C(=CSc3ccc(F)cc3)COc3cc(F)ccc32)cc1` [Example 1-58], the knock-down activity (in data set [1]; in the data set on Culex quinquefasciatus; in the data set with Aedes aegypti) was 100% in each case. Besides, the “activity (aphids killed)” value in data set [2] was 100%. For the same compound, the “activity (caterpillars killed)” value in data set [4] turned out to be 100%. For the same compound, the “activity against cat fleas” value in data set [5] is 100%. In data set [6], the “activity (spider mites killed)” value stood at 100%. For the same compound, in data set [7], the “activity (beetle larvae killed)” value is given as 100%.
Turning to `Cc1ccc(N=C2C(=CSc3ccccc3)C3CCC2C3)cc1` (centres unmarked) [Example 1-100], the knock-down activity (in data set [1]; in data set [9]; in the data set on Aedes aegypti) was 100% in each case. Besides, in data set [2], the “activity (aphids killed)” value is reported as 100%. Besides, the “activity (caterpillars killed)” value in data set [4] was determined as 100%. Also, the “activity (beetle larvae killed)” value in [7] is listed as 100%.
